Key:
[1] = refractive index (Na D-line) (dimensionless); xn = mol fraction of the nth substance listed; details: 100.5 kPa, Liquid, Standard Abbe refractometry
[2] = xn = mol fraction of the nth substance listed; details: Wilhelmy plate method

CCOC(=O)CC(C)=O [ethyl 3-oxobutanoate] + CCO
Details	refractive index, 288.15 K	refractive index, 298.18 K	refractive index, 308.15 K	refractive index, 318.15 K	surface tension liquid-gas, 288.15 K [mN/m]	surface tension liquid-gas, 298.18 K [mN/m]	surface tension liquid-gas, 308.15 K [mN/m]	surface tension liquid-gas, 318.15 K [mN/m]
[1], x1 = 0.05	1.3696	1.3654	1.3612	1.3572	–	–	–	–
[1], x1 = 0.1	1.3751	1.3709	1.3666	1.3625	–	–	–	–
[1], x1 = 0.15	1.38	1.3757	1.3714	1.3672	–	–	–	–
[1], x1 = 0.2	1.3843	1.3801	1.3758	1.3715	–	–	–	–
[1], x1 = 0.25	1.3882	1.384	1.3797	1.3755	–	–	–	–
[1], x1 = 0.3	1.3918	1.3876	1.3833	1.379	–	–	–	–
[1], x1 = 0.35	1.3951	1.3908	1.3866	1.3823	–	–	–	–
[1], x1 = 0.4	1.3981	1.3938	1.3896	1.3852	–	–	–	–
[1], x1 = 0.45	1.4009	1.3965	1.3923	1.388	–	–	–	–
[1], x1 = 0.5	1.4034	1.3991	1.3949	1.3905	–	–	–	–
[1], x1 = 0.55	1.4058	1.4014	1.3972	1.3928	–	–	–	–
[1], x1 = 0.6	1.4079	1.4036	1.3994	1.395	–	–	–	–
[1], x1 = 0.65	1.41	1.4056	1.4014	1.397	–	–	–	–
[1], x1 = 0.7	1.4119	1.4075	1.4033	1.3989	–	–	–	–
[1], x1 = 0.75	1.4137	1.4093	1.4051	1.4007	–	–	–	–
[1], x1 = 0.8	1.4154	1.4111	1.4069	1.4024	–	–	–	–
[1], x1 = 0.85	1.417	1.4126	1.4084	1.404	–	–	–	–
[1], x1 = 0.9	1.4184	1.4141	1.4099	1.4054	–	–	–	–
[1], x1 = 0.95	1.4198	1.4154	1.4112	1.4068	–	–	–	–
[1], x1 = 1	1.4209	1.4166	1.4125	1.408	–	–	–	–
[2], x1 = 0.05	–	–	–	–	23.53	22.77	21.91	20.98
[2], x1 = 0.1	–	–	–	–	24.1	23.31	22.42	21.46
[2], x1 = 0.15	–	–	–	–	24.65	23.83	22.91	21.94
[2], x1 = 0.2	–	–	–	–	25.22	24.38	23.42	22.43
[2], x1 = 0.25	–	–	–	–	25.77	24.89	23.9	22.9
[2], x1 = 0.3	–	–	–	–	26.28	25.38	24.38	23.37
[2], x1 = 0.35	–	–	–	–	26.78	25.88	24.84	23.83
[2], x1 = 0.4	–	–	–	–	27.28	26.36	25.32	24.3
[2], x1 = 0.45	–	–	–	–	27.8	26.86	25.81	24.79
[2], x1 = 0.5	–	–	–	–	28.35	27.4	26.32	25.29
[2], x1 = 0.55	–	–	–	–	28.92	27.96	26.84	25.8
[2], x1 = 0.6	–	–	–	–	29.46	28.52	27.38	26.31
[2], x1 = 0.65	–	–	–	–	30.02	29.04	27.9	26.81
[2], x1 = 0.7	–	–	–	–	30.54	29.55	28.4	27.3
[2], x1 = 0.75	–	–	–	–	31.05	30.06	28.89	27.78
[2], x1 = 0.8	–	–	–	–	31.53	30.54	29.36	28.24
[2], x1 = 0.85	–	–	–	–	32.02	31.01	29.81	28.7
[2], x1 = 0.9	–	–	–	–	32.47	31.46	30.26	29.14
[2], x1 = 0.95	–	–	–	–	32.91	31.89	30.68	29.56
[2], x1 = 1	–	–	–	–	33.3	32.3	31.1	30

— the NIST ThermoML archive (doi:10.1021/je060139a)
